Data: paper PMC9604483, “Crystal Structure of CYP3A4 Complexed with Fluorol Identifies the Substrate Access Channel as a High-Affinity Ligand Binding Site” (International Journal of Molecular Sciences, 2022)
Read-outs that look alike come from different tables or passages of the source.

Tests used:
T224A CYP3A4 [1] = biological target: T1, T224A CYP3A4 (Homo sapiens, UniProt P08684, T224A); test: Equilibrium fluorescence titrations of fluorol with CYP3A4; format: binding; conditions: for Kd: read-out: Kd, fluorometric
T1 construct: made in house
From the text: Equilibrium fluorescence titrations were used as an alternative approach for Kd determination. One advantage of fluorol is a large Stokes shift (difference between the absorption and emission maxima; Figure S1B) and sensitivity to environment, as emission becomes more intense and blue-shifted when polarity of the medium decreases (Figure S1C). Moreover, spectral overlap between the emission band of fluorol and Q-bands of CYP3A4 enables fluorescence resonance energy transfer (FRET) to the heme. This process dominates during complex formation with CYP3A4, because emission is decreased rather than enhanced when fluorol transfers from an aqueous media to a more hydrophobic protein environment. One complication that we encountered during fluorescence measurements was a nonspecific decrease in emission, presumably due to adhesion of fluorol to plastic pipette tips. To overcome this problem, before each titration, small amounts of buffer were added to fluorol solution in 1–2 μL increments (8–10 additions; <2% of volume change) and mixed using the same low-retention pipette tip. When no further changes in fluorescence intensity were observed, the same tip was used for addition and mixing of CYP3A4 aliquots (Figure 4A). […] This means that the low-affinity site in T224A CYP3A4 is less solvated and/or lies closer to the heme.
As a result, in GS8-bound CYP3A4, fluorol might still be able to bind to the channel, albeit in a different orientation (Figure S2C). […] Thus, regardless of what ligand is bound, only the low-affinity site was available for fluorol in both WT and T224A CYP3A4.
Fluorescence measurements—Equilibrium fluorescence titrations were conducted on a Hitachi F-7000 fluorescence spectrophotometer at 23 °C in 50 mM phosphate buffer, pH 7.4, containing 0.6 mg/mL β-cyclodextrin. Fluorol solution (1 μM) was first titrated with small amounts of buffer using a low-retention plastic pipette tip until no further changes in fluorescence were detected (λex = 440 nm); then, the same tip was used for CYP3A4 additions (6 μM final concentration). […] CYP3A4-dependent changes in fluorescence intensity were plotted vs. CYP3A4 concentration, and Kd values were derived from nonlinear regression fittings.

T224A CYP3A4 [2] = biological target: T1, T224A CYP3A4; test: Stopped-flow kinetics of CYP3A4-fluorol complex formation (fluorol emission decay); format: binding
Description: (§1) During equilibrium titrations, fluorescence spectra were usually recorded 10–15 min after addition of CYP3A4, which could allow fluorol to adjust/change its initial binding position. To better understand the substrate/inhibitor effects, the kinetics of CYP3A4–fluorol complex formation were measured by monitoring decay of fluorol emission in a stopped-flow spectrophotometer. […] Fluorol binding to WT and T224A CYP3A4 was biphasic within the studied time interval (2 s). The rate constants for the fast and slow phases (kfast and kslow, respectively) determined for ligand-free and progesterone-bound CYP3A4 were virtually independent on fluorol concentration (Figure 5A–D). […] Likewise, kslow was elevated for ritonavir- and GS8-bound WT CYP3A4 but remained unchanged for the T224A mutant.
(§2) Kinetics of CYP3A4–fluorol complex formation were measured in a SX.18MV stopped-flow apparatus (Applied Photophysics, Leatherhead, UK) at 23 °C in 50 mM phosphate buffer, pH 7.4, containing 0.6 mg/mL β-cyclodextrin. WT or T224A CYP3A4 (2 μM) was mixed with 0.25–4 μM fluorol solution prepared from 1–3 mM stocks in DMSO. Equal amounts of DMSO were added to the protein solutions to avoid buffer-related changes in fluorol emission. Fluorescence changes were monitored with λex of 455 nm and a 495 nm cutoff emission filter. […] Kinetics were analyzed using the Igor Pro software (WaveMetrics, Oswego, OR, USA).

WT CYP3A4 = biological target: T2, WT CYP3A4 (Homo sapiens, UniProt P08684); test: as above; format: binding
T2 construct: made in house
Description: as §1, §2

[3] = Fluorol solubility/aggregation monitored by emission changes; format: physicochemical; conditions: 50 mM potassium phosphate, pH 7.4; with or without 0.6 mg/mL β-cyclodextrin
Description: In our working solution (50 mM potassium phosphate, pH 7.4), dependence of emission intensity on fluorol concentration was linear only within the 0.1–4 μM range (Figure S1A). Addition of 0.6 mg/mL β-cyclodextrin, reported to improve solubility of fluorol, made no difference. For consistency, β-cyclodextrin was included in the assay buffers, while the working concentration of fluorol was limited to 3 μM to avoid/minimize artefacts associated with fluorol aggregation.

CYP3A4 = CYP3A4 (Homo sapiens, UniProt P08684); design: method as in PMID 22194603; conditions: prior study, cited from earlier work; for Kd: up to 60 μM fluorol
CYP3A4, sequence (P08684 whole entry): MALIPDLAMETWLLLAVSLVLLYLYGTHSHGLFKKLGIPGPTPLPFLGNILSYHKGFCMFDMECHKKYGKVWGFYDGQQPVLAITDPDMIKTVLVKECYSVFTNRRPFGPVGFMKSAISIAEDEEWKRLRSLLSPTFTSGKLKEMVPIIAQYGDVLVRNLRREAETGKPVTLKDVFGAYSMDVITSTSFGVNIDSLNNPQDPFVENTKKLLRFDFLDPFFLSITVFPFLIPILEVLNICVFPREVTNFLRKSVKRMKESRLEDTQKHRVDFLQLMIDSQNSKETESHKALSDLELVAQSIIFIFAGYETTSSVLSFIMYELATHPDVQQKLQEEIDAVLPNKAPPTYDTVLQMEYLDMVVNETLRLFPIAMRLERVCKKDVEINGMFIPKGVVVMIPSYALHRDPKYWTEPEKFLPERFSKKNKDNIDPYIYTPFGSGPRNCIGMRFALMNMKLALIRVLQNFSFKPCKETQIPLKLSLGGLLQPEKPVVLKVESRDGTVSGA

T1 sequence (P08684 with tags, fused parts or gaps T224A): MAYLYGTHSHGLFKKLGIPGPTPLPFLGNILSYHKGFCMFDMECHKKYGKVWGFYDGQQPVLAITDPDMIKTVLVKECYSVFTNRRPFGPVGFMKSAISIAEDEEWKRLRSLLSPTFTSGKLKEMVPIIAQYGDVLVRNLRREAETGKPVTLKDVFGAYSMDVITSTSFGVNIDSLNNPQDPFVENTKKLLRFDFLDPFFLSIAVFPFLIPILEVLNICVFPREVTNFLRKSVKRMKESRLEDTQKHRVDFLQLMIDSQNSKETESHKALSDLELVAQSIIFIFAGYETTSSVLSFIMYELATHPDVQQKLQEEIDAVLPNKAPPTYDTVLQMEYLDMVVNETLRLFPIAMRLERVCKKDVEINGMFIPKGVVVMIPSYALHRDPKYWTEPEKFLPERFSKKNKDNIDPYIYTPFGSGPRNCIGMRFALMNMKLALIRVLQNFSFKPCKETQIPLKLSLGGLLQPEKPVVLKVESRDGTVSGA
T2 sequence (P08684 with tags, fused parts or gaps): as the sequence (P08684 with tags, fused parts or gaps T224A) above, with A204T counted along it

For `CCCCNc1ccc2c3c(cccc13)C(=O)N(CCCC)C2=O` [fluorol, 2-butyl-6-(butylamino)-1H-benzo[de]isoquinoline-1,3(2H)-dione], the “Ligand-dependent decrease in emission change” value (T224A CYP3A4 [1]; GS8-bound T224A CYP3A4) was 7%, the Kd (T224A CYP3A4 [1]; T224A CYP3A4 in presence of 0.4 μM GS8, one-site model) was 1600 ± 200 nM and the Kd (T224A CYP3A4 [1]; T224A CYP3A4 in presence of 0.4 μM RIT, one-site model) was 3500 ± 300 nM. For the same compound, the Kd (T224A CYP3A4 [1]; T224A CYP3A4 in presence of 20 μM PRG, one-site model) was 1800 ± 200 nM, the “Ligand-dependent increase in emission change” value (T224A CYP3A4 [1]; T224A CYP3A4 in the presence of progesterone) was 20% and the “Fluorescence decay in T224A relative to WT” value (T224A CYP3A4 [1]; larger in T224A, equilibrium titration) was ~ 20%. For the same compound, the Kd (T224A CYP3A4 [1]; ligand-free T224A CYP3A4, only a low-affinity site detected) was 2000 ± 300 nM, the “Ligand-dependent decrease in emission change” value (T224A CYP3A4 [1]; ritonavir-bound T224A CYP3A4) was 20% and the “Amplitude of quenching, larger in T224A” value (T224A CYP3A4 [2]; ligand-free and progesterone/GS8-bound T224A CYP3A4) was 35–50%. The “Amplitude of quenching, smaller in T224A” value (T224A CYP3A4 [2]; ritonavir-bound T224A CYP3A4) was 60%, the “Fluorol binding kinetics (phases)” value (T224A CYP3A4 [2]; within 2 s) was “biphasic” and the “Decrease in amplitude of quenching” value (WT CYP3A4; WT, in the presence of GS8, equimolar CYP3A4 and fluorol) was ~ 20%. The “Increase in amplitude of quenching” value (WT CYP3A4; WT, in the presence of progesterone, equimolar CYP3A4 and fluorol) was ~ 40%, the “Decrease in amplitude of quenching” value (WT CYP3A4; WT, in the presence of ritonavir, equimolar CYP3A4 and fluorol) was ~ 20% and the “Fluorol binding kinetics (phases)” value (WT CYP3A4; within 2 s) was “biphasic”. For the same compound, the “Concentration range with linear dependence of emission intensity (no aggregation)” value [3] was 100 to 4000 nM, the Kd (CYP3A4; read-out: Kd, high-affinity site (peripheral area)) was ~3000 nM and the Kd (CYP3A4; read-out: Kd, low-affinity area (catalytic cavity)) was 10000 nM. The Hill coefficient (CYP3A4) was 1.93.
